Data: the NIST ThermoML archive (doi:10.1021/je020140j)
± gives the expanded uncertainty stated by the source.

Assay: molar heat capacity at constant pressure; xn = mol fraction of the nth substance listed
Settings: 101 kPa, Liquid, Small sample (50 mg) DSC

OCCO [1,2-ethanediol] + O
molar heat capacity at constant pressure (293.15 K, x1 = 0.0312): 88.03 ± 2.2 J/K/mol
molar heat capacity at constant pressure (293.15 K, x1 = 0.0676): 87.6 ± 2.1 J/K/mol
molar heat capacity at constant pressure (293.15 K, x1 = 0.1105): 86.7 ± 2.1 J/K/mol
molar heat capacity at constant pressure (293.15 K, x1 = 0.162): 89.39 ± 2.2 J/K/mol
molar heat capacity at constant pressure (293.15 K, x1 = 0.2248): 93.61 ± 2.3 J/K/mol
molar heat capacity at constant pressure (293.15 K, x1 = 0.3031): 98.37 ± 2.4 J/K/mol
molar heat capacity at constant pressure (293.15 K, x1 = 0.4036): 104.66 ± 2.6 J/K/mol
molar heat capacity at constant pressure (293.15 K, x1 = 0.537): 114.3 ± 2.8 J/K/mol
molar heat capacity at constant pressure (293.15 K, x1 = 0.723): 127.9 ± 3.1 J/K/mol
molar heat capacity at constant pressure (293.15 K, x1 = 1): 147.47 ± 3.6 J/K/mol
molar heat capacity at constant pressure (303.15 K, x1 = 0.0312): 87.89 ± 2.2 J/K/mol
molar heat capacity at constant pressure (303.15 K, x1 = 0.0676): 87.81 ± 2.1 J/K/mol
molar heat capacity at constant pressure (303.15 K, x1 = 0.1105): 87.05 ± 2.1 J/K/mol
molar heat capacity at constant pressure (303.15 K, x1 = 0.162): 89.67 ± 2.2 J/K/mol
molar heat capacity at constant pressure (303.15 K, x1 = 0.2248): 94.42 ± 2.3 J/K/mol
molar heat capacity at constant pressure (303.15 K, x1 = 0.3031): 99.15 ± 2.4 J/K/mol
molar heat capacity at constant pressure (303.15 K, x1 = 0.4036): 105.99 ± 2.6 J/K/mol
molar heat capacity at constant pressure (303.15 K, x1 = 0.537): 115.72 ± 2.8 J/K/mol
molar heat capacity at constant pressure (303.15 K, x1 = 0.723): 129.45 ± 3.2 J/K/mol
molar heat capacity at constant pressure (303.15 K, x1 = 1): 149.71 ± 3.7 J/K/mol
molar heat capacity at constant pressure (313.15 K, x1 = 0.0312): 88.36 ± 2.2 J/K/mol
molar heat capacity at constant pressure (313.15 K, x1 = 0.0676): 88.19 ± 2.2 J/K/mol
molar heat capacity at constant pressure (313.15 K, x1 = 0.1105): 87.48 ± 2.2 J/K/mol
molar heat capacity at constant pressure (313.15 K, x1 = 0.162): 90.47 ± 2.2 J/K/mol
molar heat capacity at constant pressure (313.15 K, x1 = 0.2248): 94.89 ± 2.3 J/K/mol
molar heat capacity at constant pressure (313.15 K, x1 = 0.3031): 100.31 ± 2.4 J/K/mol
molar heat capacity at constant pressure (313.15 K, x1 = 0.4036): 108.06 ± 2.6 J/K/mol
molar heat capacity at constant pressure (313.15 K, x1 = 0.537): 117.68 ± 2.9 J/K/mol
molar heat capacity at constant pressure (313.15 K, x1 = 0.723): 131.2 ± 3.2 J/K/mol
molar heat capacity at constant pressure (313.15 K, x1 = 1): 152 ± 3.7 J/K/mol
molar heat capacity at constant pressure (323.15 K, x1 = 0.0312): 88.63 ± 2.2 J/K/mol
molar heat capacity at constant pressure (323.15 K, x1 = 0.0676): 88.59 ± 2.2 J/K/mol
molar heat capacity at constant pressure (323.15 K, x1 = 0.1105): 87.53 ± 2.2 J/K/mol
molar heat capacity at constant pressure (323.15 K, x1 = 0.162): 91 ± 2.2 J/K/mol
molar heat capacity at constant pressure (323.15 K, x1 = 0.2248): 95.93 ± 2.3 J/K/mol
molar heat capacity at constant pressure (323.15 K, x1 = 0.3031): 101.88 ± 2.5 J/K/mol
molar heat capacity at constant pressure (323.15 K, x1 = 0.4036): 109.53 ± 2.7 J/K/mol
molar heat capacity at constant pressure (323.15 K, x1 = 0.537): 119.76 ± 2.9 J/K/mol
molar heat capacity at constant pressure (323.15 K, x1 = 0.723): 133.39 ± 3.3 J/K/mol
molar heat capacity at constant pressure (323.15 K, x1 = 1): 153.8 ± 3.8 J/K/mol
molar heat capacity at constant pressure (333.15 K, x1 = 0.0312): 88.8 ± 2.2 J/K/mol
molar heat capacity at constant pressure (333.15 K, x1 = 0.0676): 88.99 ± 2.2 J/K/mol
molar heat capacity at constant pressure (333.15 K, x1 = 0.1105): 87.76 ± 2.2 J/K/mol
molar heat capacity at constant pressure (333.15 K, x1 = 0.162): 91.5 ± 2.2 J/K/mol
molar heat capacity at constant pressure (333.15 K, x1 = 0.2248): 96.6 ± 2.4 J/K/mol
molar heat capacity at constant pressure (333.15 K, x1 = 0.3031): 102.38 ± 2.5 J/K/mol
molar heat capacity at constant pressure (333.15 K, x1 = 0.4036): 111 ± 2.7 J/K/mol
molar heat capacity at constant pressure (333.15 K, x1 = 0.537): 121.18 ± 3 J/K/mol
molar heat capacity at constant pressure (333.15 K, x1 = 0.723): 135.38 ± 3.3 J/K/mol
molar heat capacity at constant pressure (333.15 K, x1 = 1): 156.22 ± 3.8 J/K/mol
molar heat capacity at constant pressure (343.15 K, x1 = 0.0312): 88.88 ± 2.2 J/K/mol
molar heat capacity at constant pressure (343.15 K, x1 = 0.0676): 89.1 ± 2.2 J/K/mol
molar heat capacity at constant pressure (343.15 K, x1 = 0.1105): 88.31 ± 2.2 J/K/mol
molar heat capacity at constant pressure (343.15 K, x1 = 0.162): 92.56 ± 2.3 J/K/mol
molar heat capacity at constant pressure (343.15 K, x1 = 0.2248): 97.46 ± 2.4 J/K/mol
molar heat capacity at constant pressure (343.15 K, x1 = 0.3031): 103.64 ± 2.5 J/K/mol
molar heat capacity at constant pressure (343.15 K, x1 = 0.4036): 111.93 ± 2.8 J/K/mol
molar heat capacity at constant pressure (343.15 K, x1 = 0.537): 122.85 ± 3 J/K/mol
molar heat capacity at constant pressure (343.15 K, x1 = 0.723): 138.08 ± 3.4 J/K/mol
molar heat capacity at constant pressure (343.15 K, x1 = 1): 159.7 ± 3.9 J/K/mol
molar heat capacity at constant pressure (353.15 K, x1 = 0.0312): 89.15 ± 2.2 J/K/mol
molar heat capacity at constant pressure (353.15 K, x1 = 0.0676): 89.47 ± 2.2 J/K/mol
molar heat capacity at constant pressure (353.15 K, x1 = 0.1105): 88.97 ± 2.2 J/K/mol
molar heat capacity at constant pressure (353.15 K, x1 = 0.162): 92.31 ± 2.3 J/K/mol
molar heat capacity at constant pressure (353.15 K, x1 = 0.2248): 98.61 ± 2.4 J/K/mol
molar heat capacity at constant pressure (353.15 K, x1 = 0.3031): 104.99 ± 2.6 J/K/mol
molar heat capacity at constant pressure (353.15 K, x1 = 0.4036): 113.83 ± 2.8 J/K/mol
molar heat capacity at constant pressure (353.15 K, x1 = 0.537): 124.97 ± 3 J/K/mol
molar heat capacity at constant pressure (353.15 K, x1 = 0.723): 140.57 ± 3.4 J/K/mol
molar heat capacity at constant pressure (353.15 K, x1 = 1): 161 ± 4 J/K/mol
molar heat capacity at constant pressure (363.15 K, x1 = 0.0312): 89.25 ± 2.2 J/K/mol
molar heat capacity at constant pressure (363.15 K, x1 = 0.0676): 89.6 ± 2.2 J/K/mol
molar heat capacity at constant pressure (363.15 K, x1 = 0.1105): 89.27 ± 2.2 J/K/mol
molar heat capacity at constant pressure (363.15 K, x1 = 0.162): 93.51 ± 2.3 J/K/mol
molar heat capacity at constant pressure (363.15 K, x1 = 0.2248): 99.61 ± 2.4 J/K/mol
molar heat capacity at constant pressure (363.15 K, x1 = 0.3031): 106.52 ± 2.6 J/K/mol
molar heat capacity at constant pressure (363.15 K, x1 = 0.4036): 115.04 ± 2.8 J/K/mol
molar heat capacity at constant pressure (363.15 K, x1 = 0.537): 126.81 ± 3.1 J/K/mol
molar heat capacity at constant pressure (363.15 K, x1 = 0.723): 142.17 ± 3.5 J/K/mol
molar heat capacity at constant pressure (363.15 K, x1 = 1): 164.98 ± 4 J/K/mol
molar heat capacity at constant pressure (373.15 K, x1 = 0.1105): 89.52 ± 2.2 J/K/mol
molar heat capacity at constant pressure (373.15 K, x1 = 0.162): 93.89 ± 2.3 J/K/mol
molar heat capacity at constant pressure (373.15 K, x1 = 0.2248): 100.23 ± 2.5 J/K/mol
molar heat capacity at constant pressure (373.15 K, x1 = 0.3031): 107.47 ± 2.6 J/K/mol
molar heat capacity at constant pressure (373.15 K, x1 = 0.4036): 116.01 ± 2.8 J/K/mol
molar heat capacity at constant pressure (373.15 K, x1 = 0.537): 128.22 ± 3.1 J/K/mol
molar heat capacity at constant pressure (373.15 K, x1 = 0.723): 144.36 ± 3.5 J/K/mol
molar heat capacity at constant pressure (373.15 K, x1 = 1): 168.45 ± 4.1 J/K/mol
